# Values joined by “and” are separate entries in the source; they are usually repeats but may differ in a detail not shown here. Equal entries are not always repeated. Inconclusive results and toxic doses are left out. Square brackets hold non-standard residues; d marks the D form. Peptide text beside a SMILES is read from it. ξ: configuration not given here. ξPhe(4-N(CH2CH2Cl)2) = NC(Cc1ccc(N(CCCl)CCCl)cc1)C(=O)O; Aad = N[CH](CCCC(=O)O)C(=O)O
# Tested on: P388 leukemia ip, CD2F1 mice, survival T/C
# Assay: NCI In Vivo Anticancer Drug Screen. Data for tumor model P388 Leukemia (intraperitoneal) in CD2F1 (CDF1) mice
# Details: endpoint: median survival time, higher = longer survival
# In short: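 Mice carrying the transplanted tumor received test compound or vehicle. Survival was recorded in each group, and the value is the treated-group measurement divided by that of the vehicle-treated control group.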
# [1] = dose: 0.39 mg/kg/injection, schedule: Q01DX009 (ip), vehicle: water
# [2] = dose: 0.78 mg/kg/injection, schedule: Q01DX009 (ip), vehicle: water
# [3] = dose: 25.0 mg/kg/injection, schedule: Q01DX009 (ip), vehicle: saline with Tween-80
# [4] = dose: 50.0 mg/kg/injection, schedule: Q01DX009 (ip), vehicle: saline with Tween-80
# [5] = dose: 50.0 mg/kg/injection, schedule: Q01DX009 (ip), vehicle: Klucel (hydroxypropylcellulose) (HPC)
# [6] = dose: 100.0 mg/kg/injection, schedule: Q01DX009 (ip), vehicle: Klucel (hydroxypropylcellulose) (HPC)
# [7] = dose: 200.0 mg/kg/injection, schedule: Q01DX009 (ip), vehicle: Klucel (hydroxypropylcellulose) (HPC)
# [8] = dose: 50.0 mg/kg/injection, schedule: Q01DX009 (ip), vehicle: saline
# [9] = dose: 100.0 mg/kg/injection, schedule: Q01DX009 (ip), vehicle: saline with Tween-80
# [10] = dose: 200.0 mg/kg/injection, schedule: Q01DX009 (ip), vehicle: saline with Tween-80
compound,measurement,setting,value
COc1cccc2c1C(=O)c1c(O)c3c(c(O)c1C2=O)C[C@@](O)(c1csc(N2CCN(C)CC2)n1)C[C@@H]3OC1CC(N)C(O)C(C)O1 (some centres undefined),T/C,[1],113 % of control
same,T/C,[2],122 % of control
same,T/C,"dose: 1.56 mg/kg/injection, schedule: Q01DX009 (ip), vehicle: water",155 % of control
same,T/C,"dose: 3.13 mg/kg/injection, schedule: Q01DX009 (ip), vehicle: water",158 % of control
same,T/C,"dose: 12.5 mg/kg/injection, schedule: Q01DX009 (ip), vehicle: water",122 % of control
Nc1nc(N)c(Nc2ccc(Cl)cc2)c(Cl)n1,T/C,"dose: 25.0 mg/kg/injection, schedule: Q01DX001 (ip), vehicle: saline with Tween-80",102 % of control
same,T/C,"dose: 50.0 mg/kg/injection, schedule: Q01DX001 (ip), vehicle: saline with Tween-80",101 % of control
same,T/C,"dose: 100.0 mg/kg/injection, schedule: Q01DX001 (ip), vehicle: saline with Tween-80",95 % of control
CCN(CC)C(=O)C(F)Cl (centres undefined),T/C,"dose: 60.0 mg/kg/injection, schedule: Q01DX005 (ip), vehicle: saline with Tween-80",88 % of control
same,T/C,"dose: 120.0 mg/kg/injection, schedule: Q01DX005 (ip), vehicle: saline with Tween-80",88 % of control
same,T/C,"dose: 240.0 mg/kg/injection, schedule: Q01DX005 (ip), vehicle: saline with Tween-80",95 % of control
C[n+]1c2ccccc2c(Nc2ccc(NS(=O)(=O)CCCCN=C(N)N)cc2)c2ccc(N)cc21,T/C,"dose: 0.75 mg/kg/injection, schedule: Q01DX005 (ip), vehicle: Klucel (hydroxypropylcellulose) (HPC)",113 % of control
same,T/C,"dose: 1.5 mg/kg/injection, schedule: Q01DX005 (ip), vehicle: Klucel (hydroxypropylcellulose) (HPC)",122 % of control
same,T/C,"dose: 3.0 mg/kg/injection, schedule: Q01DX005 (ip), vehicle: Klucel (hydroxypropylcellulose) (HPC)",151 % of control
CCN(CC)[P+](C1=C(Cl)C(=O)C(C#N)=C(C#N)C1=O)(N(CC)CC)N(CC)CC,T/C,"dose: 3.1 mg/kg/injection, schedule: Q01DX009 (ip), vehicle: saline with Tween-80",108 % of control
same,T/C,"dose: 6.25 mg/kg/injection, schedule: Q01DX009 (ip), vehicle: saline with Tween-80",99 % of control
same,T/C,"dose: 12.5 mg/kg/injection, schedule: Q01DX009 (ip), vehicle: saline with Tween-80",99 % of control
same,T/C,[3],87 % of control
same,T/C,[4],101 % of control
CCOC(=O)C(C)(CCC(C)=O)C(=O)OCC,T/C,"dose: 60.0 mg/kg/injection, schedule: Q01DX005 (ip), vehicle: saline",100 % of control
same,T/C,"dose: 120.0 mg/kg/injection, schedule: Q01DX005 (ip), vehicle: saline",99 % of control
same,T/C,"dose: 240.0 mg/kg/injection, schedule: Q01DX005 (ip), vehicle: saline",108 % of control
CC(=O)n1nc(C)c(-c2onc3ccc(Cl)cc23)c1C,T/C,[5],104 % of control
same,T/C,[6],101 % of control
same,T/C,[7],90 % of control
[Cl][Pt][Cl].[NH-]CC(=O)O,T/C,"dose: 25.0 mg/kg/injection, schedule: Q01DX009 (ip), vehicle: water",171 % of control and 185 % of control
same,T/C,"dose: 50.0 mg/kg/injection, schedule: Q01DX009 (ip), vehicle: water",104 % of control
CC(C)(O)c1ccc[n+]([O-])c1,T/C,[8],98 % of control
same,T/C,"dose: 100.0 mg/kg/injection, schedule: Q01DX009 (ip), vehicle: saline",107 % of control
same,T/C,"dose: 200.0 mg/kg/injection, schedule: Q01DX009 (ip), vehicle: saline",100 % of control
COc1c2c(c(OC)c3c1C(=O)c1ccccc1C3O)CC=CC2 (centres undefined),T/C,"dose: 25.0 mg/kg/injection, schedule: Q01DX009 (ip), vehicle: other",94 % of control
same,T/C,"dose: 50.0 mg/kg/injection, schedule: Q01DX009 (ip), vehicle: other",91 % of control
same,T/C,"dose: 100.0 mg/kg/injection, schedule: Q01DX009 (ip), vehicle: other",91 % of control
same,T/C,"dose: 200.0 mg/kg/injection, schedule: Q01DX009 (ip), vehicle: other",95 % of control
same,T/C,"dose: 400.0 mg/kg/injection, schedule: Q01DX009 (ip), vehicle: other",100 % of control
CCN(CC)c1cc(Cl)ccc1Cl,T/C,[3],104 % of control
same,T/C,[4],104 % of control
same,T/C,[9],100 % of control
Nc1cccc2nccn12,T/C,"dose: 12.5 mg/kg/injection, schedule: Q01DX009 (ip), vehicle: saline",105 % of control
same,T/C,"dose: 25.0 mg/kg/injection, schedule: Q01DX009 (ip), vehicle: saline",102 % of control
same,T/C,[8],104 % of control and 95 % of control
COc1ccc(C(Br)C(C)Br)cc1 (centres undefined),T/C,[4],104 % of control
same,T/C,[9],90 % of control
same,T/C,[10],95 % of control
CCCCCCCCCC[N+](C)([O-])CCCCCC[N+](C)([O-])CCCCCCCCCC (centres undefined),T/C,"dose: 50.0 mg/kg/injection, schedule: Q04DX003 (ip), vehicle: saline with Tween-80",102 % of control
same,T/C,"dose: 100.0 mg/kg/injection, schedule: Q04DX003 (ip), vehicle: saline with Tween-80",99 % of control
COc1cccc(/C=N/C(=S)NC2(C)C3CCC(C3)C2(C)C)c1O (centres undefined),T/C,"dose: 12.5 mg/kg/injection, schedule: Q01DX009 (ip), vehicle: olive oil, sesame oil, peanut oil",105 % of control
same,T/C,"dose: 25.0 mg/kg/injection, schedule: Q01DX009 (ip), vehicle: olive oil, sesame oil, peanut oil",102 % of control
same,T/C,"dose: 50.0 mg/kg/injection, schedule: Q01DX009 (ip), vehicle: olive oil, sesame oil, peanut oil",99 % of control
same,T/C,"dose: 100.0 mg/kg/injection, schedule: Q01DX009 (ip), vehicle: olive oil, sesame oil, peanut oil",97 % of control
same,T/C,"dose: 200.0 mg/kg/injection, schedule: Q01DX009 (ip), vehicle: olive oil, sesame oil, peanut oil",94 % of control
same,T/C,"dose: 400.0 mg/kg/injection, schedule: Q01DX009 (ip), vehicle: olive oil, sesame oil, peanut oil",97 % of control
O=C1C2=C(CCC2)C2CCCC12 (centres undefined),T/C,[4],102 % of control
same,T/C,[9],109 % of control
same,T/C,[10],90 % of control
CCC(C)C(NC(=O)C(F)(F)F)C(=O)O (centres undefined),T/C,[4],98 % of control
same,T/C,[9],98 % of control
same,T/C,[10],103 % of control
C=CCC(O)(C(F)(F)F)C(F)(F)F,T/C,[4],105 % of control
same,T/C,[9],103 % of control
same,T/C,[10],115 % of control
CCOC(=O)C(Cc1ccc(N(CCCl)CCCl)cc1)NC(=O)C(CCC(=O)O)NC(=O)C(Cc1ccc(O)cc1)NC(=O)C(CCCC(=O)O)NC(=O)C(N)Cc1ccc(O)cc1 (centres undefined) (H-Y[Aad]YE[ξPhe(4-N(CH2CH2Cl)2)]-OEt; configuration not given here),T/C,"dose: 25.0 mg/kg/injection, schedule: Q01DX009 (ip), vehicle: Klucel (hydroxypropylcellulose) (HPC)",162 % of control
same,T/C,[5],173 % of control and 186 % of control
same,T/C,[6],189 % of control and 230 % of control
same,T/C,[7],218 % of control and 220 % of control
CC(C)CN1CC(=O)N2CCCC(c3ccccc3)N2C(=O)C1 (centres undefined),T/C,"dose: 50.0 mg/kg/injection, schedule: Q01DX005 (ip), vehicle: saline with Tween-80",95 % of control
same,T/C,"dose: 100.0 mg/kg/injection, schedule: Q01DX005 (ip), vehicle: saline with Tween-80",115 % of control
same,T/C,"dose: 200.0 mg/kg/injection, schedule: Q01DX005 (ip), vehicle: saline with Tween-80",112 % of control
CC1OC(OC2CC(O)(C(=O)CO)Cc3c(O)c4c(c(O)c32)C(=O)c2ccccc2C4=O)CC(N)C1O (centres undefined),T/C,"dose: 0.05 mg/kg/injection, schedule: Q01DX009 (ip), vehicle: water",159 % of control
same,T/C,"dose: 0.1 mg/kg/injection, schedule: Q01DX009 (ip), vehicle: water",185 % of control and 216 % of control
same,T/C,"dose: 0.2 mg/kg/injection, schedule: Q01DX009 (ip), vehicle: water",221 % of control and 261 % of control
same,T/C,"dose: 0.21 mg/kg/injection, schedule: Q04DX003 (ip), vehicle: water",172 % of control
same,T/C,"dose: 0.25 mg/kg/injection, schedule: Q04DX003 (ip), vehicle: water",101 % of control and 122 % of control
same,T/C,"dose: 0.36 mg/kg/injection, schedule: Q04DX003 (ip), vehicle: water",209 % of control
same,T/C,[1],115 % of control
same,T/C,"dose: 0.4 mg/kg/injection, schedule: Q01DX009 (ip), vehicle: water",115 % of control
same,T/C,"dose: 0.5 mg/kg/injection, schedule: Q04DX003 (ip), vehicle: water",157 % of control
same,T/C,"dose: 0.6 mg/kg/injection, schedule: Q04DX003 (ip), vehicle: water",239 % of control
same,T/C,[2],86 % of control
same,T/C,"dose: 1.0 mg/kg/injection, schedule: Q04DX003 (ip), vehicle: water",167 % of control and 183 % of control
same,T/C,"dose: 1.3 mg/kg/injection, schedule: Q01DX001 (ip), vehicle: water",216 % of control
same,T/C,"dose: 2.4 mg/kg/injection, schedule: Q01DX001 (ip), vehicle: water",104 % of control
same,T/C,"dose: 3.2 mg/kg/injection, schedule: Q01DX001 (ip), vehicle: water",97 % of control
same,T/C,"dose: 4.0 mg/kg/injection, schedule: Q04DX003 (ip), vehicle: water",104 % of control

# Source: PubChem BioAssay AID330 (DTP/NCI, 2004)
